For test [1], the system named is CCR5/CCR2 chemokine receptor system, CCL2 chemotaxis of human monocytes. Briefly: CCL2 (MCP-1) mediated human monocyte chemotaxis (FIG. 1). The test is classed as cell-based. The settings on record: FIG. 1, triplicate determinations. From the text: FIG. 1 illustrates that all-D-pentapeptide analogs of Peptide T inhibit CCL2 mediated human monocyte chemotaxis.
In order to overcome this limitation we hereby disclose an unexpected method of preserving potency. […] B. Pert, J. D. Rone, R. Nixon, M. Vance, B. Sandler, M. D. Lumpkin, D. J. Dieter, and M. R. Ruff. 1999. Peptide T blocks GP120/CCR5 chemokine receptor-mediated chemotaxis. Clin Immunol.
The FIG. 1 assay measured the peptide's ability to block CCL2 (MCP-1) chemotaxis.

In test [2] the test system is neuropathic pain and inflammation. The settings on record: animals; cited from earlier work.
The subject of test [3] is HIV (92HT596; R5/X4 isolate) entry via CXCR4, MAGI-CXC4 cells. The conditions noted are these: peptide 1 nM, 48 hrs, mean and s.e.m of triplicate cultures; cited from earlier work.
The subject of test [4] is HIV (92HT596; R5/X4 isolate) entry via CCR5, MAGI-CCR5 cells. The conditions noted are these: peptide 1 nM, 48 hrs, mean and s.e.m of triplicate cultures; cited from earlier work.
A further test concerns HIV gp120 neurotoxicity. The settings on record: cited from earlier work; for EC50: read-out: EC50 (pM), antagonism of HIV gp120 neurotoxicity.
The next test concerns chemokine receptors. The conditions noted are these: two D-substitutions in peptide T; cited from earlier work.

Entries after “also recorded” stand apart in the source; their conditions may differ.

In the case of (all-D)-TTNYT, in test [1], the “block of CCL2 (MCP-1) chemotaxis / CCR5/CCR2 chemokine receptor system” value is “blocked”. Moreover, the oral efficacy result in test [2] was “prevent and reverse neuropathic pain and block inflammation”.

Usually EC50 stands for the midpoint of the concentration-response curve. As for TTSYT, the “BFU (% Control) MAGI-CXC4” value in test [3] was 35 +/− 7 % Control. In addition, in test [4], the “BFU (% Control) MAGI-CCR5” value is on record as 23 +/− 5 % Control. In addition, in the test with HIV gp120 neurotoxicity, the EC50 is 10 pM.

For the substance (D-A1, D-T8)-peptide T-NH2, in the test on chemokine receptors, the “loss of potency versus peptide T” value is “over 100,000 fold”.

As for STNYT, in the test with HIV gp120 neurotoxicity, the EC50 is 3 pM.

Consider TDNYT [reference compound], for which, in the test with HIV gp120 neurotoxicity, the EC50 was 3000 pM.

As to TTSFT [reference compound], the EC50 in the test on HIV gp120 neurotoxicity was 100000 pM.

In the case of TENYT [reference compound], in the test with HIV gp120 neurotoxicity, the “EC50 (pM), antagonism of HIV gp120 neurotoxicity” value was “inactive”.

Turning to TTNdYT [reference compound], in the test on HIV gp120 neurotoxicity, the “EC50 (pM), antagonism of HIV gp120 neurotoxicity” value is “inactive” and the “activity / biopotency (gp120 neurotoxicity)” value is “loss of all activity; also recorded: completely loses activity”.

As to ETWYS, the “BFU (% Control) MAGI-CXC4” value in test [3] was 65 +/− 5 % Control. For the same substance, the “BFU (% Control) MAGI-CCR5” value in test [4] is 21 +/− 7 % Control. The EC50 in the test on HIV gp120 neurotoxicity is 13 pM.

Consider NTSYG, for which the “BFU (% Control) MAGI-CXC4” value in test [3] was 60 +/− 8| % Control. Further, in the test with HIV gp120 neurotoxicity, the EC50 was 10 pM.

On to TTNYT, for which the “BFU (% Control) MAGI-CXC4” value in test [3] is recorded as 45 +/− 7 % Control. In addition, in test [4], the “BFU (% Control) MAGI-CCR5” value was 23 +/− 4 % Control. For the same substance, the EC50 with HIV gp120 neurotoxicity was 10 pM.

Take SSTYR: the EC50 with HIV gp120 neurotoxicity was 1 pM.

The values are drawn from US20140322251A1, “Peptides for Progressive Treating Multi-Focal Leukoencephalopathy and Related Conditions” (priority 2013, published 2014).
